The text below walks through data of PMC8429170, “Ligand-binding and -scavenging of the chemerin receptor GPR1” (Cellular and Molecular Life Sciences: CMLS, 2021).

For one assay, the target named is T1, GPR1 (Homo sapiens, UniProt P46091).
T1 construct: expressed in transfected cells; host or cells: COS-7, transient
The assay is described as follows: cell-based. The settings on record: for Emax: COS-7. The protocol: Arrestin recruitment was characterized by measuring the bioluminescence resonance energy transfer (BRET) ratio between luciferase-tagged arrestin3 and either GPR1-eYFP or CMKLR1-eYFP as described previously. In brief, COS-7 cells in 75 cm^2 cell culture flasks were transiently transfected overnight with 7800 ng GPR1-eYFP or CMKLR1-eYFP in pVitro2 and 200 ng Rluc8-Arr3 in pcDNA3 using MetafectenePro according to the manufacturer’s protocol. […] For kinetic measurements, cells were stimulated with agonist in buffer or buffer alone, and fluorescence was measured for 20 min using a Tecan Infinite M 200 Reader (Tecan, Männerdorf, Switzerland) using the filter sets Green1 (YFP emission, luminescence 520–570 nm) and Blue1 (luciferase luminescence 370–480 nm). For concentration–response curves, cells were stimulated with agonist or blank, and luminescence was measured after 10 min. BRET signal was calculated as the ratio of fluorescence divided by luminescence, netBRET signal was calculated by subtracting the BRET signal of unstimulated wells from the respective samples.

The next assay concerns the target T2, GPR1-eYFP (human) (UniProt P46091).
T2 sequence: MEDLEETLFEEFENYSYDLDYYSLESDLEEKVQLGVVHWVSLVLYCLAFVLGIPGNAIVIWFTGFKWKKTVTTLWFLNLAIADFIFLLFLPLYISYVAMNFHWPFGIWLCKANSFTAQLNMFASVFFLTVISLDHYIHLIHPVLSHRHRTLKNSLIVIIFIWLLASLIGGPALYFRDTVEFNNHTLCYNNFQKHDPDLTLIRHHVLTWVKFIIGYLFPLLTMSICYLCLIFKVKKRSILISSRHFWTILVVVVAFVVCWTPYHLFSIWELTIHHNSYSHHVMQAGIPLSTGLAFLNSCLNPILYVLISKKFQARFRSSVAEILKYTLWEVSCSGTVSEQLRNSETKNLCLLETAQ

A word on the EC50: it is the midpoint of the concentration-response curve. For orientation: Emax means the greatest response seen or fitted, relative to the assay's reference.

Ends that are not written are not given here. Peptide text beside a SMILES is read from it.

T1 sequence (P32120 whole entry partner, one chain of several): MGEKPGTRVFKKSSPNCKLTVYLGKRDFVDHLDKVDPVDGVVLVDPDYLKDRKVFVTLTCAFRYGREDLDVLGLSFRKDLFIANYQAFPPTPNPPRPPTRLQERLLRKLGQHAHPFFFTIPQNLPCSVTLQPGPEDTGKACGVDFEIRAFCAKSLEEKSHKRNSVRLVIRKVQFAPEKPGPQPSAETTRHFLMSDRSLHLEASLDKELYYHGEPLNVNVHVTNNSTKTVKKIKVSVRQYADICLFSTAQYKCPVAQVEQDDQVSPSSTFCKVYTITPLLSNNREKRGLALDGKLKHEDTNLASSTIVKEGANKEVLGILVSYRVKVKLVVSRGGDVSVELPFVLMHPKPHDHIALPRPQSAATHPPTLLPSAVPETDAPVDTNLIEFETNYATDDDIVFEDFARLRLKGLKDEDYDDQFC

`C[C@@H]1NC(=O)[C@H](Cc2ccccc2)NC(=O)[C@H](CCC(N)=O)NC(=O)[C@H](NC(=O)[C@@H]2CCCN2C(=O)[C@H](Cc2ccccc2)NC(=O)[C@@H](N)Cc2ccc(O)cc2)CCSSC[C@@H](C(=O)O)NC(=O)[C@H](Cc2ccccc2)NC1=O` [[4-9]-c(chemerin-9)] (HELM PEPTIDE1{Y.F.P.[O=C([C@@H](CCS[*:3])N[*:1])[*:2]].Q.F.A.F.C}$PEPTIDE1,PEPTIDE1,4:R3-9:R3$$$V2.0) gave an EC50 on GPR1 of 3.3 nM. Take QRAGEDPHSFYFPGQFAFS [Chem^139−157]: at GPR1, the EC50 is 3.09 nM and the Emax is 94 ± 7%. Regarding YFPGQFAF [Chem^149−156], at GPR1, the half-maximal effective concentration (EC50) was 3.98 nM and the Emax was found to be 110 ± 16%.

The molecule Chem^149-155 (chemerin-7) (peptide) showed an EC50 of arrestin3 recruitment to GPR1-eYFP (BRET with Rluc8-Arr3, COS-7 cells) with GPR1-eYFP (human) above 1000 nM.

In the case of FPGQFAFS [Chem^150−157], on GPR1, the EC50 was 22.4 nM and the maximal effect (Emax) came to 87 ± 8%. On GPR1, QRAGEDPHSFYFPGQFAF [Chem^139−156] gave an EC50 of 2.95 nM and an Emax of 99 ± 9%. FPGQFAFS [Chem^150-157] registered an EC50 of arrestin3 recruitment to GPR1-eYFP (BRET with Rluc8-Arr3, COS-7 cells) in the assay with GPR1-eYFP (human) of 22 nM.

With PGQFAFS [Chem^151-157], the EC50 of arrestin3 recruitment to GPR1-eYFP (BRET with Rluc8-Arr3, COS-7 cells) in the assay with GPR1-eYFP (human) is above 1000 nM.

The molecule YFPGQFAF [Chem^149-156] had an EC50 of arrestin3 recruitment to GPR1-eYFP (BRET with Rluc8-Arr3, COS-7 cells) with GPR1-eYFP (human) of 4 nM. As for QRAGEDPHSFYFPGQFAFS [Chem^139-157], the EC50 of arrestin3 recruitment to GPR1-eYFP (BRET with Rluc8-Arr3, COS-7 cells) in the assay with GPR1-eYFP (human) stood at 3.1 nM. On the same count and under the same terms, as for QFYSFFPAG [scr2C9], the figure is above 1000 nM; as for QRAGEDPHSFYFPGQFAF [Chem^139-156], 2.9 nM.
